According to patent publication US10604513B2, “Pyridone derivative comprising heteroatomic ring butane substituent, for treating fibrosis and inflammatory diseases” (SHIJIAZHUANG SAGACITY NEW DRUG DEVELOPMENT CO., LTD., priority 2016, dated 2020):

Columns and labels:
[1] = system: endotoxin (LPS)-induced TNF-α in rat blood; assay: Effect of compounds on endotoxin (LPS)-induced TNF-α in rat blood in vitro; type: cell-based, Sprague Dawley rats; settings: for inhibition at 500 µM: tested concentration of compound 0.5 Mm (footnote *); for inhibition at 500 µM / inhibition at 100 µM: LPS 100 μg/mL, rat blood, 5 h; for inhibition of TNF-α level induced by LPS (in words): compared with Pirfenidone; for inhibition at 100 µM: tested concentration of compound 0.1 mM
Protocol: Main task: evaluation on effect of compounds on endotoxin (LPS)-induced TNF-α in rat blood in vitro
Experimental purpose: testing effect of compounds on endotoxin (LPS)-induced TNF-α in rat blood in vitro, and evaluate effect of compounds on endotoxin (LPS)-induced TNF-α in rat blood in vitro
Sprague Dawley rats (male, 210-260 g, Shanghai Slac Laboratory Animal CO. LTD) Rat TNF-alpha Quantikine ELISA Kit (R&D, #SRTA00)
A solution of the compound was prepared (5 mM or 1 mM), 40 μL was added into a 48-well cell culture plate, respectively (the final concentration was 0.5 or 0.1 mM). The rats were hocussed with isoflurane and blood was collected from the abdominal aorta (Heparin anticoagulant). The blood was added into a 48-well cell culture plate (320 μL per well) containing the compounds to be tested. And then the 48-well cell culture plate was incubated at 37° C. After 30 min, the plate was added with 40 μL LPS (the final concentration was 100 μg/mL), and then were incubated at 37° C. after mixed. After 5 h, the 48-well plate was taken out and the blood was transferred into 1.5 mL centrifuge tubes and centrifuged in the centrifugal machine (4,500 rpm, 4° C., 5 min). The upper plasma was separated and kept portions (20 μL per well) into 96-well sample plate, and then sharp-frozen and preserved at refrigerator (−80° C.). The second day, the TNF-α level on the blood samples was tested by using R&D ELISA kits according to the kit specification. The data was analyzed by EXCEL and Prism.

[2] = system: SD rat pulmonary fibrosis induced by Bleomycin; assay: Efficacy trial in vivo: SD rat pulmonary fibrosis induced by Bleomycin; settings: for improving tissue damage in the area and margin of pulmonary fibrosis lesions: doses per Table 5, FIGS. 1-4; for efficacy compared with the reference compound Pirfenidone: oral, 14 days
Text: Experimental purpose: test preventive therapeutic effects of compounds on SD rat pulmonary fibrosis induced by Bleomycin
Model: SD rat pulmonary fibrosis on the left lung; pulmonary fibrosis modelled by injecting Bleomycin into rat trachea
Molding agent: Bleomycin (BLM)
1 ? experimental grouping: efficacy trial for twice, besides common modeling group and Pirfenidone group as control reference, tested compounds were divided into […], i.e. model group (Group -1, n=7, Vehicle), control reference drug (group-2, n=7, Pirfenidone); tested compound WX001 group (Group-3, n=7), tested compound WX002 high dosage group (Group-4, n=7), tested compound WX002 low dosage group (Group-5, n=7) (Table 5)
2 ? Drug administration: Orally administering on the day the model was established, twice a day and administration for 14 day continuously 3 ? Physiological observation of experimental animal: detecting changes in animal weight (test weight before administration every day); detecting animal death rate during test period 4 ? euthanasia of animal after 14 days, formalin was injected into left lung to fix, and test volume and weight of left lung after injection and then test Lung Pathology (Table 6)
Test Results of Experiment: Test of tissue pathology of left lung: pathological evaluation of H&E dye: 1) pathological changes of left lung terminal bronchiole, 2) pathological changes of left lung pulmonary arteriole; pathological evaluation of Masson Thrichrome dye: 3) area of left lung pulmonary fibrosis, 4) score of left lung pulmonary fibrosis.

SMILES | inhibition at 500 µM [1] | inhibition of TNF-α level induced by LPS (in words) ([1]; 0.1 mM as final concentration) | inhibition at 100 µM [1] | other results
Cc1ccc(=O)n(-c2ccccc2)c1 [Pirfenidone, reference compound] | 51.4% | – | – | –
CC1(c2ccc(=O)n(-c3ccccc3)c2)COC1 [WX001] | 86.3% | – | – | improving tissue damage in the area and margin of pulmonary fibrosis lesions ([2]; oral twice a day for 14 days): good effect; inhibition of TNF-α level induced by LPS (in words) ([1]; 0.5 mM): significant inhibition
CC1(c2ccc(=O)n(-c3ccsc3)c2)COC1 [WX002] | – | significant inhibition | 74.6% | efficacy compared with the reference compound Pirfenidone ([2]; low dose of 50 mpk group): better efficacy than Pirfenidone; preventing the formation of pulmonary fibrosis ([2]; oral twice a day for 14 days, FIG. 5): good effect; improving tissue damage in the area and margin of pulmonary fibrosis lesions ([2]; oral twice a day for 14 days): good effect; efficacy compared with the reference compound Pirfenidone ([2]; same dose of 100 mpk group): better efficacy than Pirfenidone
CC1(c2ccc(=O)n(-c3csc(Cl)c3)c2)COC1 [WX003] | – | significant inhibition | 84.7% | –
Cc1cc(-n2cc(C3(C)COC3)ccc2=O)cs1 [WX004] | – | significant inhibition | 89.5% | –
CC1(c2ccc(=O)n(-c3cscn3)c2)COC1 [WX005] | – | – | 61.6% | –
O=c1ccc(C2(O)COC2)cn1-c1ccsc1 [WX009] | 51.5% | – | – | –
O=c1ccc(C2(F)COC2)cn1-c1ccsc1 [WX011] | – | significant inhibition | 78.8% | –
